Laboratory results as given in patent publication US10323019B2, “Pyrazolylaminobenzimidazole derivatives as JAK inhibitors” (Eli Lilly and Company, priority 2016, dated 2019).
Like-named read-outs stand apart in the source and are kept apart here.

What was measured:
JAK1 [1] = biological target: T1, JAK1 (Homo sapiens (Human), UniProt P23458); test: Human whole blood assay: pSTAT3 (JAK1) in lymphocytes, IL6 stimulated; assay type: cell-based; details: IL6, pSTAT3 in CD4+ lymphocytes
Excerpt: (§1) Human Whole Blood Assays: Determination of pSTAT3 (JAK1) and pSTAT5 (JAK2) in Lymphocytes and Monocytes
(§2) Human whole blood (HWB) assays were developed and validated to determine the JAK1 and JAK2 selectivity of test compounds.
(§3) Dilute the test compounds, 10 points, (1:3) in DMSO 100% and a step down in PBS+0.1% BSA. Use Tofacitinib as a reference compound in each plate, as well as a maximum signal (stimulated wells) and a minimum signal (no stimulated wells) in order to normalize data. Obtain a pool of HWB from 4 different healthy donors. Plate the blood in a 96 well plate using a Tecan Evo 96w and incubate with test compounds for 1 h at RT. After this time of incubation, stimulate HWB with both IL6 (206-IL, R&D System) and GM-CSF (PHC2015, Life Technologies) for 15 more minutes. Add a viability dye (65-0865, eBiosicience) (1:1000) using a Tecan Evo 96w (5×mix).
(§4) The final concentrations in the assay are the following: 100 (μM for compounds, 50 μM for Tofacitinib, 0.1 μg/mL IL6, 0.038 μg/mL GM-CSF and 1% DMSO. Lyse and fix HWB using a Lyse/fix buffer (558049, Becton Dickinson) by adding 900 μL of lysis buffer using Tecan Evo 96w (mix 10× high speed). Incubate HWB in bath at 37° C. for 10 minutes. Centrifuge HWB at 500 G, 8 min and discard supernatant. Add cold MeOH using a Tecan Exo 96w in order to permeabilize cells. Incubate blood cells on ice during 30 min. After this, wash cells 2× using Staining buffer (554656, Becton Dickinson), spin at 3000 rpm, 2 min. discard supernatant, and add the following antibodies: Anti-Human CD4 PE, 1:100 (12-0048, eBioscience), Anti-Human CD33 eFluor® 450, 1:50 (48-0337, eBioscience), Phospho-STAT5 (Tyr694) (C71E5) Rabbit mAb, 1:100 (Alexa Fluor® 488 Conjugate) (3939, Cell Signaling) and Phospho-STAT3 (Tyr705) (D3A7) XP™ Rabbit mAb 1:200, (Alexa Fluor® 647 Conjugate) (4324, Cell Signaling). Incubate the antibodies for 1 h in dark at RT, then wash cells 2× and read on Cytometer Macsquant (Miltenyi Biotec). Gate the data on CD4+ (lymphocytes) and CD4Low CD33Hi (monocytes), to measure the fluorescence intensity from cells expressing pSTAT3 and pSTAT5, respectively. Analyze the data using FlowJo v 10 and then normalize the median of fluorescence versus maximum and minimum signal to determine the IC50s. Use Graph Pad Prism 5™ to represent the dose response curves.

[2] = tested on: paw swelling in Lewis rats; test: Rat collagen-induced arthritis (CIA) model; assay type: in vivo
Description: Rat Collagen-Induced Arthritis (CIA) Model
This protocol uses Lewis rats (weight 150-175 grams) from Charles River. On day 0, anesthetize rats with Isoflurane. On day 1, immunize intradermally with collagen emulsion in two sites on the lower lumbar region, above the base of the tail. Dose volume is a minimum of 0.4 mL per injection site. On day 8, anesthetize rats with Isoflurane and immunize intradermally with collagen emulsion in two sites on the lower lumbar region, above the base of the tail. Enroll rats into treatment groups on day 12, based on inflammation (redness and/or swelling) in their hind paws. Randomize animals for Treatment Phase based on ankle measurement values and body weight using block randomization allocation tool. Record ankle swelling on days 1, 8, and 11 and then three times per week following enrollment up to and including the day of necropsy. Dose compounds orally once a day starting on day 12 (after randomization) up to day 25. The compounds of Examples 6 and 7 were evaluated in the protocol essentially as described above.

JAK3 = JAK3 (Homo sapiens (Human), UniProt P52333); test: JAK LanthaScreen Kinase Assay (TR-FRET), JAK3 in vitro enzyme assay; assay type: biochemical; details: 20.0 μM ATP
Chain of JAK3 (P52333 whole entry): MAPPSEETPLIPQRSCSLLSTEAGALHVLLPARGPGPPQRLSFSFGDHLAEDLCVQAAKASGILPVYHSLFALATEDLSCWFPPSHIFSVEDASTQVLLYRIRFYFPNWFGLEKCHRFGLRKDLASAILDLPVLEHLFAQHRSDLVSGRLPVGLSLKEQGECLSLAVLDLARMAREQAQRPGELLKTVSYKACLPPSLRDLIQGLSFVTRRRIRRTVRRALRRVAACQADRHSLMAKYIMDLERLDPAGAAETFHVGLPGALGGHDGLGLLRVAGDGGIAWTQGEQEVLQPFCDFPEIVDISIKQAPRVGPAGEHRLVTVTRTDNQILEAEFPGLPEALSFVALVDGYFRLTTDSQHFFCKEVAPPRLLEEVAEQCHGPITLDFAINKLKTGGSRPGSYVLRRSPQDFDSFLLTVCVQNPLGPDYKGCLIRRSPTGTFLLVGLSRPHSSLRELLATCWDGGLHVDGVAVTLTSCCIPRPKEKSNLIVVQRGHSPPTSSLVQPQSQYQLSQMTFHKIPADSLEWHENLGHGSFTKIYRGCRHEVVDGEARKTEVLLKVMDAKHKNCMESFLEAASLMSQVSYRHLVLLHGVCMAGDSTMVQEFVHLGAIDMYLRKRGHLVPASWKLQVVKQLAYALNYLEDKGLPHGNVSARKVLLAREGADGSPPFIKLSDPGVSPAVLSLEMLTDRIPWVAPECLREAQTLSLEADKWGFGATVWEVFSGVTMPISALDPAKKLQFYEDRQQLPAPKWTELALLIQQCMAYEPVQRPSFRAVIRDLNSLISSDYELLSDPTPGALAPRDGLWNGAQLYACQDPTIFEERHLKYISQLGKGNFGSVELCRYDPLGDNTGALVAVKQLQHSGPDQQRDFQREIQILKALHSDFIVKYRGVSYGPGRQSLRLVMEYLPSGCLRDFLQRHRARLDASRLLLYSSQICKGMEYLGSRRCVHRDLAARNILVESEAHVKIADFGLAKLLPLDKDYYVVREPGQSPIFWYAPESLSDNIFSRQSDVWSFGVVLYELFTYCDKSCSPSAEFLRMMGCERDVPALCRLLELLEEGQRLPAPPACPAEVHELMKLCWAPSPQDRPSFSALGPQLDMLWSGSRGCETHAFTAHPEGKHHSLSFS
Description: (§5) The JAK LanthaScreen™ Kinase Assay (Invitrogen) is used to determine the ability of test compounds to inhibit JAK1, JAK2, and JAK3 kinase activity. These are TR-FRET assay formats that use long-lifetime terbium labeled antibody as the donor species and GFP-STAT1 as the acceptor species. Use the TR-FRET ratio to monitor JAK kinase activity where an increase in phosphorylation of the GFP-STAT1 results in an increase in the TR-FRET ratio. Perform the kinase reaction using a 12.5 μl reaction volume in shallow black 384-well Proxiplate®. Add reagents to obtain final reaction conditions of […], 1.76 mM Triton X-100, ATP (20.0 μM for JAK1 and JAK3 or 5 μM for JAK2) enzyme assays, 10.0 mM MgCl2, 1 mM EGTA and 0.01% Brij-35, […] GFP-STAT1, 14 nM JAK1 enzyme for JAK1, 1.0 nM for JAK2 or 2.5 nM for JAK3 enzyme assays, and 4% DMSO and serial dilutions of test compound (diluted 1:3 from 20,000 to 1 nM). Following ATP/GFP-STAT1 addition, centrifuge the assay plates for 1 minute at 1000 revolutions per minute (RPM). Allow the plates to incubate at RT for 60 minutes and then add 12.5 μl of a stopping buffer containing 20 mM EDTA, 2 nM Terbium-anti-phosphorylated Signal Transducers and Activators of Transcription [phosphorylation Tyrosine 701 amino acid] […] Use ACTIVITYBASE® 4.0 to fit the percent inhibition and ten-point compound concentration data to a four-parameter logistic equation.

JAK1 [3] = biological target: T1, JAK1; test: JAK LanthaScreen Kinase Assay (TR-FRET), JAK1 in vitro enzyme assay; assay type: biochemical; details: 20.0 μM ATP
Description: as §5

JAK1 [4] = biological target: JAK1 (Rattus norvegicus, UniProt G3V9W2); test: Rat PK/PD assay: rat whole blood ex vivo JAK1 activity (pSTAT3); assay type: in vivo; details: 30 mpk oral
Chain of JAK1 (Rattus norvegicus, UniProt G3V9W2) (G3V9W2 1-1153): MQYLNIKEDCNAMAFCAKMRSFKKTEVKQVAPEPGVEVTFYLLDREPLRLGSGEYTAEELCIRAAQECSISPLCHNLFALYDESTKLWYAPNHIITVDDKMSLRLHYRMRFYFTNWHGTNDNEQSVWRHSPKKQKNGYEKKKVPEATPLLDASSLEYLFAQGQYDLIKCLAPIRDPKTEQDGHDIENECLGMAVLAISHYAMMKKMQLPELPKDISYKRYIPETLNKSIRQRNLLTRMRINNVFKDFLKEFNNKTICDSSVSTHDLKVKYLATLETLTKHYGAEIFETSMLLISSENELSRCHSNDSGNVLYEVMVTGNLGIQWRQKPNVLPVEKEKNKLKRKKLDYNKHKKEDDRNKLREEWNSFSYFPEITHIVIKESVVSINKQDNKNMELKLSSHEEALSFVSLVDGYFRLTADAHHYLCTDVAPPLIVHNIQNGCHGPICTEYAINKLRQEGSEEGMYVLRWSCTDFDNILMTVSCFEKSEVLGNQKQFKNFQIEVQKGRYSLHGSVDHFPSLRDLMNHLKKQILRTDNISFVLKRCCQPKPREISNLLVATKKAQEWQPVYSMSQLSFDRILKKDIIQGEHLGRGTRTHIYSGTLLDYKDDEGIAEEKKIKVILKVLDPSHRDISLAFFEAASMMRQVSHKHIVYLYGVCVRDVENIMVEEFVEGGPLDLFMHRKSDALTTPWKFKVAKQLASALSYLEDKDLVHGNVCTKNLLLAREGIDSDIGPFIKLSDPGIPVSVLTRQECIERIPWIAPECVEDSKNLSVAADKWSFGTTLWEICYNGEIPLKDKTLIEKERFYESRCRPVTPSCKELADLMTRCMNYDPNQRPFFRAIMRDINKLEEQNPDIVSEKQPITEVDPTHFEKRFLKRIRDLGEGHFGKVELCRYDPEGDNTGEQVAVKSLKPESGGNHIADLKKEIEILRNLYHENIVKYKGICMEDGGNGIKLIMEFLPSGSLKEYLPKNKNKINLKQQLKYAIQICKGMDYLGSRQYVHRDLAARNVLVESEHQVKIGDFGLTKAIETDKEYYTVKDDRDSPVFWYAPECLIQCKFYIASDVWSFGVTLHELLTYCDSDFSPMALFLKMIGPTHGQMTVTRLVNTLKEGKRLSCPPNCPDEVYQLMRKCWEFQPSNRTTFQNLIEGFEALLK
Description: (§6) Male Wistar rats, 265-285 grams (Charles River) were used for oral gavage dosing. Dose the animals (Oral gavage) at 1.82 mL/kg (0.5 mL per 275 grams). Formulate the compounds in 1% HEC vehicle containing 0.25% Tween 80 and 0.05% antifoam with 1.1 molar equivalent of methanesulfonic acid to form an in situ salt. Formulate compounds once per week, and store at 4° C. At various time points, obtain rat whole blood via tail vain bleeding in Multivette 600 μl EDTA blood collection tubes (cat#151671100PK100, Sarstedt Inc) and use for ex vivo JAK1 and JAK2 assay. Aliquot 100 ul of blood from each rat into a 96-well round bottom plate. Stimulate whole blood by recombinant IL-6 ([…], and recombinant mouse GM-CSF (cat#415-ML, lot#, R&D) for 12 min at rt. After cytokine stimulation, add whole blood into Lyse/fix (cat#558049, lot#, BD) in minitube rack; mix well 5×. Incubate 10 min at rt. Spin minitube rack at 600 g for 4 min. Aspirate with 12-channel manifold. Transfer contents of minitube rack to 96 well round-bottom plates. Spin down the cells at 3000 rpm for 1 min and discard the supernatant. Mix the cells in the well with 100 ul ice-cold MeOH and incubated on ice for 30 min. Add 150 ul PBS+2% FCS into each well and spin down at 3000 rpm, 2 min. Wash cells with 2× of 250 ul PBS+2% FCS. For cell surface and intracellular staining, mix all antibodies and add into each well and incubate 1 hr at rt in dark. The antibodies used for staining are as following: pSTAT3, Alexa Fluor 647 (cat#4324s, lot, Cell Signaling); pSTAT5, Alexa Fluor 488 (cat#3939s, lot#, Cell Signaling), anti-rat CD4, V450 (cat#561579, lot#. BD); anti-rat CD11b, Percp eFluor710 (cat#12-0110-82, lot#, eBioscience) After staining cells with Abs, wash the plates twice with PBS+2% FCS and finally re-suspend in the same 150 ul of solution. Assess cell viability by Viability Dye 780 (cat#65-0865-14, lot#, eBioscience). Perform the cytometry assay using FORTESSA.

JAK2 [5] = biological target: JAK2 (Rattus norvegicus (Rat), UniProt Q62689); test: Rat PK/PD assay: rat whole blood ex vivo JAK2 activity (pSTAT5); assay type: in vivo; details: 30 mpk oral
Description: as §6

JAK2 [6] = biological target: T2, JAK2 (Homo sapiens (Human), UniProt O60674); test: Human whole blood assay: pSTAT5 (JAK2) in monocytes, GM-CSF stimulated; assay type: cell-based; details: pSTAT5 in CD4Low CD33Hi monocytes
T2 sequence (O60674 whole entry): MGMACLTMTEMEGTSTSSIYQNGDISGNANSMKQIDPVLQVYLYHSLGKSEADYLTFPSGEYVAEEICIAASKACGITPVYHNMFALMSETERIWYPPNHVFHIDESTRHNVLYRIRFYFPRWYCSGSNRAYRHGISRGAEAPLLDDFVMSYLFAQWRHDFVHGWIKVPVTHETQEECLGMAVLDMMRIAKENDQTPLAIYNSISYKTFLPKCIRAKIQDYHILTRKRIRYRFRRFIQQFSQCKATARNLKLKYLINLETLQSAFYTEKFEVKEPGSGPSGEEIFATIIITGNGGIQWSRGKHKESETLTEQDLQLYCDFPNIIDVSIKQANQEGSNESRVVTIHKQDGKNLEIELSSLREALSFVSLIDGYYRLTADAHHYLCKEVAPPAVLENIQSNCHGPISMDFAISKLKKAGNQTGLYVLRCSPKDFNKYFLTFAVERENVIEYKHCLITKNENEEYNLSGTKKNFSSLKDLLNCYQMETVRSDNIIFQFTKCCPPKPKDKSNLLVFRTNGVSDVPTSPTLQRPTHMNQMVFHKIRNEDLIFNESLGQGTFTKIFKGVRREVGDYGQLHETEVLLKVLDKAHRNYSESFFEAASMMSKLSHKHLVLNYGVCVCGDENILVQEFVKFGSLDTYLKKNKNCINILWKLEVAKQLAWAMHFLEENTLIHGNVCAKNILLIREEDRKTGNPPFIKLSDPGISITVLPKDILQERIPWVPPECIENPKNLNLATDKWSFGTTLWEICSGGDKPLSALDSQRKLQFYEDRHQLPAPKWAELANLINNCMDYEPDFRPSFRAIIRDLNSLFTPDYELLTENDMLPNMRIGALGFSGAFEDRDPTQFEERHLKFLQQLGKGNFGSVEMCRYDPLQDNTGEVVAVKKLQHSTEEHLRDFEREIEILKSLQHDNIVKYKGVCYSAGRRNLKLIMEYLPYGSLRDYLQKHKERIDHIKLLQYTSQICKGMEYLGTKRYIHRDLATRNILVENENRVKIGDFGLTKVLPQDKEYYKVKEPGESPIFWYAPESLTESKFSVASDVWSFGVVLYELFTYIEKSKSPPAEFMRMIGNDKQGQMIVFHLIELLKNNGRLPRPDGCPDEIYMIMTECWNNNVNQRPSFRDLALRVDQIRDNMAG
Excerpt: as §1, §2, §3, §4

JAK2 [7] = biological target: T2, JAK2; test: JAK LanthaScreen Kinase Assay (TR-FRET), JAK2 in vitro enzyme assay; assay type: biochemical; details: 5 μM ATP
Description: as §5

[8] = tested on: paw swelling and bone mineral density loss in Lewis rats; test: Rat adjuvant-induced arthritis (AIA) model; assay type: in vivo; details: naïve rat as 100% inhibition
Description: Rat Adjuvant-Induced Arthritis (AIA) Model
The effects of compounds on polyarthritis inflammation and ankle joint bone erosion can be evaluated in a rat adjuvant-induced arthritis (AIA) model. Use Male Lewis rats with a mean body weight of 185 g for the study. Induce arthritis by intra-dermal injection located at the base of the tail with 100 μL of adjuvant suspended immunization emulsion oil. Randomize animals based on the mean paw thickness and body weight on day 10 into study groups with 8 rats in each group. Prepare compounds in 1% HEC/0.25% P80/0.05% AF in purified water and dose daily via oral gavage starting from day 11 post immunization for 14 days. Quantitate paw thickness with the caliper measurement on both ankles. Assess group differences using a one-way ANOVA followed by Dunnett's post-test for multiple comparisons against vehicle controls. The compound of Example 10 are evaluated in the protocol essentially as described above.

T1 sequence (P23458 whole entry): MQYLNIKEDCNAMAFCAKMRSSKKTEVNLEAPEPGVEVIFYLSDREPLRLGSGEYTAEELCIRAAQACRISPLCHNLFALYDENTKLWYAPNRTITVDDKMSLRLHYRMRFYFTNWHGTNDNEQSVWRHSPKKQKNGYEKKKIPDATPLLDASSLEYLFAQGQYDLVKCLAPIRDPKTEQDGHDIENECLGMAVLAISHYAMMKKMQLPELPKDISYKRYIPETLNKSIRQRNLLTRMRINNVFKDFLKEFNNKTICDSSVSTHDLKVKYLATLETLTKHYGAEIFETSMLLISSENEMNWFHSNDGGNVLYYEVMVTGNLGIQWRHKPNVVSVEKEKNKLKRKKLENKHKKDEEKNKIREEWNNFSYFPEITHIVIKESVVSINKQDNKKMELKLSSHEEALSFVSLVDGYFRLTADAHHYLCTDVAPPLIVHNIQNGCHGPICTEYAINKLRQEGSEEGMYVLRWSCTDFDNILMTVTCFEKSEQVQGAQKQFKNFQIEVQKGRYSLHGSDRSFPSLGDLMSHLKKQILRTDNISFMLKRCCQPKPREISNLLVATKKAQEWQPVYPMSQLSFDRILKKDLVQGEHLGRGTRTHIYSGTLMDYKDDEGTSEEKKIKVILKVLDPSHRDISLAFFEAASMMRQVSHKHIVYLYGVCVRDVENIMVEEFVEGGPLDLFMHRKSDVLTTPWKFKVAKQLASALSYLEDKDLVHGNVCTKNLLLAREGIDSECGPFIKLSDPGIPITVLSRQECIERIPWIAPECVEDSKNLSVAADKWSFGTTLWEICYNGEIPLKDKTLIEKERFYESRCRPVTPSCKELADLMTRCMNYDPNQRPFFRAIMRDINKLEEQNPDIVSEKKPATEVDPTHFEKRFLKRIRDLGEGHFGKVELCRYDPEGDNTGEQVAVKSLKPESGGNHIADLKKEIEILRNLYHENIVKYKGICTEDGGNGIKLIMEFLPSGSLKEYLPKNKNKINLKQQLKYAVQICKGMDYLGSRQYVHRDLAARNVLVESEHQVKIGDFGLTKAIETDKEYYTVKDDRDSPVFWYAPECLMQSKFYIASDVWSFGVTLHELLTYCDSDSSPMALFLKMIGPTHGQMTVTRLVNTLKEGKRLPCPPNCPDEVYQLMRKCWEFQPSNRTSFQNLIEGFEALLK

| SMILES | IC50 (JAK1 [1]) [nM] | IC50 (JAK3) [nM] | IC50 (JAK1 [3]) [nM] | IC50 (JAK2 [6]) [nM] | IC50 (JAK2 [7]) [nM] | other results |
| --- | --- | --- | --- | --- | --- | --- |
| CCn1nc(Nc2cc(OC3CCC(NC[C@@H](O)C(F)(F)F)CC3)cc3c2ncn3C)cc1C (stereo in doubt) [Example 7] | 4170 ± 1870 | 6160 ± 2020 | 5.43 ± 0.93 |  |  | Rat paw swelling % inhibition at 3 mpk ([2]; 3 mpk oral once a day day 12 to 25, naïve rat as 100% inhibition): 0%; Rat paw swelling % inhibition at 10 mpk ([2]; 10 mpk oral once a day day 12 to 25, naïve rat as 100% inhibition): 69%; Rat paw swelling % inhibition at 30 mpk ([2]; 30 mpk oral once a day day 12 to 25, naïve rat as 100% inhibition): 73%; JAK1 inhibition 2 hr post dosing (JAK1 [4]; 2 hr post dosing): 70.7%; JAK1 inhibition 7 hr post dosing (JAK1 [4]; 7 hr post dosing): 61.0% |
| Cc1cc(Nc2cc(O[C@H]3CC[C@@H](NC[C@@H](O)C(F)(F)F)CC3)cc3c2ncn3C)nn1C[C@H](C)O [Example 4, (2R)-1,1,1-Trifluoro-3-[(cis-4-{[4-({1-[(2S)-2-hydroxypropyl]-5-methyl-1H-pyrazol-3-yl}amino)-1-methyl-1H-benzimidazol-6-yl]oxy}cyclohexyl)amino]propan-2-ol] |  |  |  |  |  | inhibition at 30 mg/kg (JAK2 [5]; 2 hr post dosing, read-out: JAK2 inhibition 2 hr post dosing): 22.9%; inhibition at 30 mg/kg (JAK2 [5]; 7 hr post dosing, read-out: JAK2 inhibition 7 hr post dosing): 20.1%; inhibition at 30 mg/kg (JAK1 [4]; 2 hr post dosing, read-out: JAK1 inhibition 2 hr post dosing): 72%; inhibition at 30 mg/kg (JAK1 [4]; 7 hr post dosing, read-out: JAK1 inhibition 7 hr post dosing): 22.3% |
| Cn1cnc2c(Nc3cc[nH]n3)cc(O[C@H]3CC[C@@](C)(NC[C@@H](O)C(F)(F)F)CC3)cc21 [Example 8, (2R)-1,1,1-Trifluoro-3-[(cis-1-methyl-4-{[1-methyl-4-(1H-pyrazol-3-ylamino)-1H-benzimidazol-6-yl]oxy}cyclohexyl)amino]propan-2-ol] | 3130 ± 1100 | 1170 ± 470 | 1.91 ± 0.75 | 9630 ± 2520 | 239 ± 150 |  |
| Cc1cc(Nc2cc(O[C@H]3CC[C@@H](NC[C@@H](O)C(F)F)CC3)cc3c2ncn3C)nn1C [Example 9, (2R)-3-{[cis-4-({4-[(1,5-Dimethyl-1H-pyrazol-3-yl)amino]-1-methyl-1H-benzimidazol-6-yl}oxy)cyclohexyl]amino}-1,1-difluoropropan-2-ol] | 4530 ± 2090 | 2140 ± 720 | 5.35 ± 0.23 | 16900 ± 4500 | 767 ± 39 |  |
| Cn1cnc2c(Nc3ccn(-c4ccccn4)n3)cc(O[C@H]3CC[C@@H](NC[C@@H](O)C(F)(F)F)CC3)cc21 [Example 10, (2R)-1,1,1-Trifluoro-3-({cis-4-[(1-methyl-4-{[1-(pyridin-2-yl)-1H-pyrazol-3-yl]amino}-1H-benzimidazol-6-yl)oxy]cyclohexyl}amino)propan-2-ol] | 1290 ± 640 | 660 ± 180 | 1.49 ± 0.49 | 6860 ± 2130 | 220 ± 120 | % inhibition of BMD loss in paw ([8]; 3 mpk oral daily for 14 days): 39%; % inhibition of paw swelling ([8]; 3 mpk oral daily for 14 days): 26%; % inhibition of BMD loss in paw ([8]; 10 mpk oral daily for 14 days): 81%; % inhibition of paw swelling ([8]; 10 mpk oral daily for 14 days): 63%; % inhibition of BMD loss in paw ([8]; 30 mpk oral daily for 14 days): 84%; % inhibition of paw swelling ([8]; 30 mpk oral daily for 14 days): 73% |
